Data on one molecule can be found in US9308230B2, “Combination of proanthocyanidins and centella asiatica for the treatment of atherosclerosis” (HORPHAG RESEARCH IP, priority 2009, dated 2016).

The experiment has as its system hypoechoic-echolucent carotid and femoral atherosclerotic plaques. In words: Grey Scale Median (GSM) ultrasound measurement of echolucent carotid and femoral atherosclerotic plaques, prospective 6-month trial. The class given is in vivo, human. The following applies: once daily for 6 months, 100 mg/day of each component; responders/patients in group; ** = significant vs initial value and control. Here is the method:
Variation in echogenicity of echolucent carotid and femoral atherosclerotic plaques with combined treatment (Pycnogenol 100 mg+TTFCA 100 mg, with or without Aspirin 100 mg). A prospective, pilot 6-month trial. (TTFCA=total triterpenic fraction of Centella asiatica) This study has evaluated whether a combination of Pycnogenol® and TTFCA, with or without Aspirin, was effective in reducing plaque progression and cardiovascular risk of events by decreasing platelet aggregation, local arterial inflammation and the intima-media scarring process due to inflammation at the level of carotid and femoral arteries bifurcations. This prospective placebo-controlled trial had the purpose of evaluating the effects of Pycnogenol® and TTFCA, with or without Aspirin, selectivity on hypoechoic-echolucent plaques. The sonographic examination of carotid plaques was made with high-resolution ultrasound. Capturing plaques images, digital image processing, and normalization were standardized. The interobserver, […], gain-level variability were also standardized using as reference blood (black) for the most echolucent parts of the plaque and the adventitia (white) as the most echogenic part. The technique for plaque characterization and GSM (Grey Scale Median) measurements had been previously described in details. […]

Take `CC(=O)Oc1ccccc1C(=O)O` [Aspirin, acetylsalicylic acid]: the “At 6 months: number of patients with an increase of plaques Grey Scale Median of at least 5 points” value is 2/18.
